According to patent US20220233472A1, “VETERINARY BROMHEXINE HYDROCHLORIDE SOLUBLE POWDER, PREPARATION METHOD AND USE THEREOF” (Qingdao Agricultural University, priority 2021, published 2022):
Counter-ions that a name gives are not always drawn.

Experiment: Pharmacokinetic tests of bromhexine hydrochloride soluble powder in chickens
Format: in vivo
Details: oral, soluble powder at 50, 150 and 250 mg/kg·bw
Protocol: Pharmacokinetic tests of bromhexine hydrochloride soluble powder in chickens were carried out based on three administration dosages of 50 mg/kg·bw, 150 mg/kg·bw and 250 mg/kg·bw.

pharmacokinetic characteristic: linear pharmacokinetic characteristic
Structure (SMILES): CN(Cc1cc(Br)cc(Br)c1N)C1CCCCC1 [bromhexine, Bromhexine hydrochloride]
